In PubChem BioAssay AID1418 (Emory University Molecular Libraries Screening Center, 2008):
The source made the active and inactive calls. The rule behind the calls is not given here.

target: Induced myeloid leukemia cell differentiation protein Mcl-1 (Homo sapiens) (UniProt Q07820); assay: blockers of Bid binding to Mcl-1 – biochemical, TR-FRET, dose response (AID 1418); settings: Mcl-1/Bid peptide binding, TR-FRET (europium/Dy647), 2 hr
Sequence (Q07820 whole entry, looked up): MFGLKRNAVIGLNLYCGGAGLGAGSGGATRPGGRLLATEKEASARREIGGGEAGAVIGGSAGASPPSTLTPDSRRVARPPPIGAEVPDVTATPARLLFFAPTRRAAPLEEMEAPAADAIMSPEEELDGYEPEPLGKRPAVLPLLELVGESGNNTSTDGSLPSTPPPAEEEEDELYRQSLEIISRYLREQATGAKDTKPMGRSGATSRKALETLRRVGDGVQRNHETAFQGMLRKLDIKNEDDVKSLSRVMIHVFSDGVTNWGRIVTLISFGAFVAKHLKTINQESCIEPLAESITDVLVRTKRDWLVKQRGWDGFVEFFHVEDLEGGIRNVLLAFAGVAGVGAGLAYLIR

Compound	IC50
CN(C)S(=O)(=O)c1cc(S(=O)(=O)N(C)C)c(Cl)cc1N	> 54 µM (inactive)
O=C(Cc1sc(-c2ccccc2Cl)nc1-c1ccccc1)Nc1ccccc1	> 54 µM (inactive)
O=C(O)CCN1C(=O)S/C(=C\c2cccnc2)C1=O	> 54 µM (inactive)
COC(=O)c1ccc(CNC(=O)c2c3c(nc4ccccc24)CCN(Cc2ccccc2)C3)cc1	> 54 µM (inactive)
Cc1cccc(NC(=O)C2C(C(=O)O)C3C=CC2C32CC2)c1C (centres undefined)	> 54 µM (inactive)
COc1cc(-c2nc(-c3ccc(NC(=O)c4ccc(Br)o4)cc3)no2)cc(OC)c1OC	1.81 µM
Cc1cc(N2CC(C)OC(C)C2)n2cc(-c3ccccc3)nc2n1 (centres undefined)	> 54 µM (inactive)
O=c1c2ccccc2nc(/C=C/c2cccnc2)n1Cc1ccccc1	0.54 µM
CC(=O)Cc1nsc(NC(=O)c2ccc(-c3cc(C(F)(F)F)ccc3Cl)o2)n1	> 54 µM (inactive)
CCC(CC)C(=O)Oc1c(Sc2ccccc2[N+](=O)[O-])c(C)nn1C(C)(C)C	> 54 µM (inactive)
O=[N+]([O-])c1ccc(NC(=S)NCCc2ccc(Cl)cc2)cc1	> 54 µM (inactive)
C=CCn1c(SCc2ccc(C#N)cc2)nnc1-c1cccc(OC)c1	> 54 µM (inactive)
COc1cccc(-n2c(SCc3ccccn3)nc3c(c2=O)SCC3)c1	> 54 µM (inactive)
COc1cccc(C(=O)N2CCN(Cc3ccccn3)CC2)c1OC	> 54 µM (inactive)
COc1ccccc1C(=O)NC(=S)NNC(=O)c1sc2ccccc2c1Cl	1.7 µM
Cc1ccc(-n2c(=O)c3cc4c(=O)n(-c5ccc(C)c(C)c5)c(=O)c4c(C(=O)c4ccc(C(=O)O)cc4)c3c2=O)cc1C	6.91 µM
CCN1C(=O)c2cccc3c(NC(=O)C4CCCCC4)ccc1c23	> 54 µM (inactive)
Cc1ccc(-c2nnc(N3CC(C)OC(C)C3)c3ccccc23)cc1 (centres undefined)	> 54 µM (inactive)
COC(=O)c1cc2sc(Cl)cc2n1CC(=O)Nc1cccc(SC)c1	> 54 µM (inactive)
CCOc1ccc(-c2nnc(-c3ccccc3)n2-c2ccccc2)cc1	inactive

Compound	IC50
COc1cc(/C=C(/C#N)c2nc3ccccc3c(=O)[nH]2)ccc1O	1.15 µM
Cc1ccc(C(=O)NC(C)c2nc3ccccc3n2CC(=O)Nc2c(C)cc(C)cc2C)cc1 (centres undefined)	0.45 µM
CCOC(=O)c1c(C)oc2c1c(C(c1ccncc1)N1CCOCC1)c(O)c1ccccc12 (centres undefined)	0.87 µM
Cc1ccc(-c2nc(SCC(=O)Nc3ccccc3OC(F)F)c3c(C)c(C(=O)O)sc3n2)cc1	> 54 µM (inactive)
CCCN(CCC)CCNC(=O)C1CC(=O)N(c2ccc(OC)cc2)C1c1ccc(OC)cc1 (centres undefined)	> 54 µM (inactive)
COc1cc(/C=C2/SC(=S)N(CC3CCCO3)C2=O)ccc1O (centres undefined)	> 54 µM (inactive)
Cc1ccc(Cl)c(OCCCN(C)Cc2ccccc2)c1	> 54 µM (inactive)
Cc1nc2c(-c3ccc(Cl)cc3)cnn2c2c1CCC2	> 54 µM (inactive)
COc1cccc(OC)c1C(=O)N1CCN(Cc2ccncc2)CC1	> 54 µM (inactive)
O=C(COc1cccc2c1CCN(Cc1ccc(Br)cc1)C2=O)NCc1ccco1	> 54 µM (inactive)
COc1ccc(C(=O)C2CCCN(Cc3cn[nH]c3-c3ccc(F)cc3)C2)cc1OC (centres undefined)	> 54 µM (inactive)
O=C(NNC(=O)c1ccccc1Cl)c1ccccc1Cl	> 54 µM (inactive)
CC1=NN(c2ccccc2)C(=O)/C1=C\c1cn(-c2ccccc2)nc1C	> 54 µM (inactive)
O=C(O)CCC(=O)NCCC1=c2ccccc2=N/C1=C\c1c(O)n(Cc2ccc(F)cc2)c(=S)[nH]c1=O	2.51 µM
COc1ccc2nc(NC(=O)c3ccc(-c4cccc([N+](=O)[O-])c4)o3)sc2c1	0.81 µM
Clc1ccc(SCCn2ccnc2)cc1	inactive
C/C(C/C(C)=C1/SC(=S)NC1=O)=C1\SC(=S)NC1=O	1.25 µM
O=C(N[C@@H](Cc1ccccc1)C(=O)O)c1ccncc1	> 54 µM (inactive)
CCOc1ccc(N/C(=C(/C(Cl)=C(Cl)Cl)[N+](=O)[O-])n2cncn2)cc1	> 54 µM (inactive)
